Experimental findings from the supplement of paper PMC10307832 are described below.

Holding throughout (experiment): relative viability (nuclei count vs DMSO), 5 days (fraction); higher = more cells survive
Compound in the experiment “AZ505 + Crizotinib”: C1CCC(CC1)N(CCNCCC2=C3C(=C(C=C2)O)NC(=O)CO3)C(=O)CCNCCC4=CC(=C(C=C4)Cl)Cl [AZ505] + C[C@@H](Oc1cc(-c2cnn(C3CCNCC3)c2)cnc1N)c1c(Cl)ccc(F)c1Cl [Crizotinib] (partner 1 µM)
The gist of the method: (§1)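 One day after seeding in 1536-well plates, lung cancer cell lines were dosed by pin tool. Dosing was either single-drug or a fixed anchor-drug dose plus five library-drug doses (not always all listed) in √10 steps. After 5 days, nuclei were stained in one fix-and-stain step and counted on 4× images, and relative viability is the nuclei count of treated wells over that of vehicle wells, given as the median of duplicate plates.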

Compound in the experiment “Dactolisib + Luminespib”: Cn1c(=O)n(-c2ccc(C(C)(C)C#N)cc2)c2c3cc(-c4cnc5ccccc5c4)ccc3ncc21 [Dactolisib] + CCNC(=O)c1noc(-c2cc(C(C)C)c(O)cc2O)c1-c1ccc(CN2CCOCC2)cc1 [Luminespib] (partner 0.01 µM)
The gist of the method:
as §1

Compound in the experiment “AZ505 + Dasatinib”: C1CCC(CC1)N(CCNCCC2=C3C(=C(C=C2)O)NC(=O)CO3)C(=O)CCNCCC4=CC(=C(C=C4)Cl)Cl [AZ505] + Cc1nc(Nc2ncc(C(=O)Nc3c(C)cccc3Cl)s2)cc(N2CCN(CCO)CC2)n1 [Dasatinib] (partner 0.075 µM)
Put shortly: as §1

Compound in the experiment “AZ505 + Pemetrexed”: C1CCC(CC1)N(CCNCCC2=C3C(=C(C=C2)O)NC(=O)CO3)C(=O)CCNCCC4=CC(=C(C=C4)Cl)Cl [AZ505] + Nc1nc2[nH]cc(CCc3ccc(C(=O)N[C@@H](CCC(=O)O)C(=O)O)cc3)c2c(=O)[nH]1 [Pemetrexed] (partner 0.2 µM)
Put shortly:
as §1

Turning to UMC-11, the relative viability with AZ505 + Crizotinib (first compound 0.08 µM) was 0.537; with AZ505 + Crizotinib (first compound 0.253 µM), 0.588; in the experiment with AZ505 + Crizotinib (first compound 0.8 µM) it was 0.639; with AZ505 + Crizotinib (first compound 2.53 µM), 0.709; in the experiment with AZ505 + Crizotinib (first compound 8 µM) it was 0.573; with Dactolisib + Luminespib (first compound 0.002 µM), 1.1. Moreover, the relative viability is 0.781 with Dactolisib + Luminespib (first compound 0.006325 µM); 0.737 with Dactolisib + Luminespib (first compound 0.02 µM); 0.261 with Dactolisib + Luminespib (first compound 0.06325 µM); 0.224 with Dactolisib + Luminespib (first compound 0.2 µM); 0.444 in the experiment with AZ505 + Dasatinib (first compound 0.08 µM); 0.459 in the experiment with AZ505 + Dasatinib (first compound 0.253 µM). Further, the relative viability with AZ505 + Dasatinib (first compound 0.8 µM) was found to be 0.458; in the experiment with AZ505 + Dasatinib (first compound 2.53 µM), 0.472; with AZ505 + Dasatinib (first compound 8 µM), 0.658; with AZ505 + Pemetrexed (first compound 0.08 µM), 0.757; with AZ505 + Pemetrexed (first compound 0.253 µM) it was 0.714; in the experiment with AZ505 + Pemetrexed (first compound 0.8 µM), 0.705. In addition, the relative viability in the experiment with AZ505 + Pemetrexed (first compound 2.53 µM) was 0.901; with AZ505 + Pemetrexed (first compound 8 µM), 0.894.
